From US10316028B2, “Orexin receptor antagonists” (Heptares Therapeutics Limited, priority 2012, dated 2019)

Target: T1, human Orexin-2 receptor (Homo sapiens, UniProt O43614)
T1 construct: expressed in transfected cells; host or cells: HEK293 cells (transient transfection, Genejuice); membranes
T1 sequence (O43614 1-444): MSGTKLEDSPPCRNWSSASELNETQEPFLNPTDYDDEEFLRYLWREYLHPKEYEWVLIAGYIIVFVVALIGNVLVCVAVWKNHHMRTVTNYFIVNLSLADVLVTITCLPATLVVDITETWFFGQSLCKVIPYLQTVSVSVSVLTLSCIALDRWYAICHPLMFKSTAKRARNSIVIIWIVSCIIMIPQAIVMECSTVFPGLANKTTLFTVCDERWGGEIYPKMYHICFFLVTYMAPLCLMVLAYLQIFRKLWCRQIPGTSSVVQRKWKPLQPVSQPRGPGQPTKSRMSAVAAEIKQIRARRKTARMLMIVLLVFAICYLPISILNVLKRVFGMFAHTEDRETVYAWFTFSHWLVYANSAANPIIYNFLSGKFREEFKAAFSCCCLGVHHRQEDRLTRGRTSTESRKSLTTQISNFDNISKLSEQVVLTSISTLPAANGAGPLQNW
Experiment: 3H-EMPA radioligand binding assay
Details: 3H-EMPA displacement, membranes of HEK293 cells transfected with human Orexin-2 receptor; KI by Cheng-Prussoff; read-out: OX2 pKi ave (converted)
Method in brief: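 Membranes from HEK293 cells transiently transfected with human orexin-2 receptor cDNA, assayed with [3H]EMPA. Bound ligand collected on PEI-treated GF/B filters and counted by scintillation; IC50 from inhibition curves, Ki by Cheng-Prusoff.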

Row | Ki [nM] | SMILES
1 | 0.776 | COc1ccc(N2C(=O)N(Cc3c(F)cccc3Cl)c3ncccc3S2(=O)=O)cc1OC [Example 94, 4-(2-Chloro-6-fluorobenzyl)-2-(3,4-dimethoxyphenyl)-2H-pyrido[2,3-e][1,2,4]thiadiazin-3(4H)-one 1,1-dioxide]
2 | 0.129 | COc1cc(F)c(CN2C(=O)N(c3ccc(OC)c(OC)c3)S(=O)(=O)c3cccnc32)c(F)c1 [Example 95, 4-(2,6-Difluoro-4-methoxybenzyl)-2-(3,4-dimethoxyphenyl)-2H-pyrido[2,3-e][1,2,4]thiadiazin-3(4H)-one 1,1-dioxide]
3 | 13.2 | COc1ccc(N2C(=O)N(Cc3ncc(F)cc3F)c3ncccc3S2(=O)=O)cc1OC [Example 96, 4-[(3,5-Difluoropyridin-2-yl)methyl]-2-(3,4-dimethoxyphenyl)-2H-pyrido[2,3-e][1,2,4]thiadiazin-3(4H)-one 1,1-dioxide]
4 | 0.661 | COc1ccc(N2C(=O)N(Cc3c(F)cc(Cl)cc3F)c3ncccc3S2(=O)=O)cc1OC [Example 97, 4-(4-Chloro-2,6-difluorobenzyl)-2-(3,4-dimethoxyphenyl)-2H-pyrido[2,3-e][1,2,4]thiadiazin-3(4H)-one 1,1-dioxide]
5 | 1.48 | COc1cc(N2C(=O)N(Cc3c(F)cc(F)cc3F)c3ncccc3S2(=O)=O)cc(OC)n1 [Example 98, 2-(2,6-Dimethoxypyridin-4-yl)-4-(2,4,6-trifluorobenzyl)-2H-pyrido[2,3-e][1,2,4]thiadiazin-3(4H)-one 1,1-dioxide]
6 | 1.55 | COc1ccc(N2C(=O)N(Cc3c(F)cc(F)cc3F)c3ncccc3S2(=O)=O)nc1OC [Example 99, 2-(5,6-Dimethoxypyridin-2-yl)-4-(2,4,6-trifluorobenzyl)-2H-pyrido[2,3-e][1,2,4]thiadiazin-3(4H)-one 1,1-dioxide]
7 | 3.47 | Cc1ccc(N2C(=O)N(Cc3c(F)cc(F)cc3F)c3ncccc3S2(=O)=O)cc1C [Example 101, 2-(3,4-Dimethylphenyl)-4-(2,4,6-trifluorobenzyl)-2H-pyrido[2,3-e][1,2,4]thiadiazin-3(4H)-one 1,1-dioxide]
8 | 0.776 | COc1cc(F)c(CN2C(=O)N(c3ccc(C)c(C)c3)S(=O)(=O)c3cccnc32)c(F)c1 [Example 102, 4-(2,6-Difluoro-4-methoxybenzyl)-2-(3,4-dimethylphenyl)-2H-pyrido[2,3-e][1,2,4]thiadiazin-3(4H)-one 1,1-dioxide]
9 | 4.27 | Cc1cc(C)cc(N2C(=O)N(Cc3c(F)cc(F)cc3F)c3ncccc3S2(=O)=O)c1 [Example 103, 2-(3,5-Dimethylphenyl)-4-(2,4,6-trifluorobenzyl)-2H-pyrido[2,3-e][1,2,4]thiadiazin-3(4H)-one 1,1-dioxide]
10 | 7.08 | COc1ccc(N2C(=O)N(Cc3c(F)cc(F)cc3OC)c3ccccc3S2(=O)=O)cc1OC [Example 104, 4-(2,4-Difluoro-6-methoxybenzyl)-2-(3,4-dimethoxyphenyl)-2H-1,2,4-benzothiadiazin-3(4H)-one 1,1-dioxide]
11 | 1.95 | COc1ccc(N2C(=O)N(Cc3c(F)cc(F)cc3F)c3ccccc3S2(=O)=O)cc1OC [Example 105, 2-(3,4-Dimethoxyphenyl)-4-(2,4,6-trifluorobenzyl)-2H-1,2,4-benzothiadiazin-3(4H)-one 1,1-dioxide]
12 | 0.741 | COc1ccc(N2C(=O)N(Cc3c(F)cc(C)cc3Cl)c3ccccc3S2(=O)=O)cc1OC [Example 106, 4-(2-Chloro-6-fluoro-4-methylbenzyl)-2-(3,4-dimethoxyphenyl)-2H-1,2,4-benzothiadiazin-3(4H)-one 1,1-dioxide]
13 | 1.05 | COc1ccc(N2C(=O)N(Cc3c(F)cc(F)cc3Cl)c3ccccc3S2(=O)=O)cc1OC [Example 107, 4-(2-Chloro-4,6-difluorobenzyl)-2-(3,4-dimethoxyphenyl)-2H-1,2,4-benzothiadiazin-3(4H)-one 1,1-dioxide]
14 | 0.468 | COc1cc(F)c(CN2C(=O)N(c3ccc(OC)c(OC)c3)S(=O)(=O)c3ccccc32)c(F)c1 [Example 108, 2-(3,4-Dimethoxyphenyl)-4-(2,6-difluoro-4-methoxybenzyl)-2H-1,2,4-benzothiadiazin-3(4H)-one 1,1-dioxide]
15 | 3.24 | COc1cc(F)c(CN2C(=O)N(c3cccc(SC)c3)S(=O)(=O)c3ccccc32)c(F)c1 [Example 109, 4-(2,6-Difluoro-4-methoxybenzyl)-2-[3-(methylsulfanyl)phenyl]-2H-1,2,4-benzothiadiazin-3(4H)-one 1,1-dioxide]
16 | 2.69 | CSc1cccc(N2C(=O)N(Cc3c(F)cc(F)cc3Cl)c3ccccc3S2(=O)=O)c1 [Example 110, 4-(2-Chloro-4,6-difluorobenzyl)-2-[3-(methylsulfanyl)phenyl]-2H-1,2,4-benzothiadiazin-3(4H)-one 1,1-dioxide]

Second part, the compound before the results:

Row | SMILES | Ki [nM]
17 | COc1ccc(N2C(=O)N(Cc3c(C)cccc3F)c3ccccc3S2(=O)=O)cc1OC [Example 79, 4-(2-Fluoro-6-methylbenzyl)-2-(3,4-methoxyphenyl)-2H-1,2,4-benzothiadiazin-3(4H)-one 1,1-dioxide] | 0.389
18 | COc1c(C)cc(N2C(=O)N(Cc3ccc(F)cc3Cl)c3ccccc3S2(=O)=O)cc1C [Example 80, 4-(2-Chloro-4-fluorobenzyl)-2-(4-methoxy-3,5-dimethylphenyl)-2H-1,2,4-benzothiadiazin-3(4H)-one 1,1-dioxide] | 7.59
19 | COc1c(C)cc(N2C(=O)N(Cc3c(F)cccc3Cl)c3ccccc3S2(=O)=O)cc1C [Example 81, 4-(2-Chloro-6-fluorobenzyl)-2-(4-methoxy-3,5-dimethylphenyl)-2H-1,2,4-benzothiadiazin-3(4H)-one 1,1-dioxide] | 0.0832
20 | Cc1cc(N2C(=O)N(Cc3c(F)cccc3Cl)c3ccccc3S2(=O)=O)cc(C)c1O [Example 82, 4-(2-Chloro-6-fluorobenzyl)-2-(4-hydroxy-3,5-dimethylphenyl)-2H-1,2,4-benzothiadiazin-3(4H)-one 1,1-dioxide] | 3.31
21 | CSc1cccc(N2C(=O)N(Cc3cc(C)nn3C)c3ccccc3S2(=O)=O)c1 [Example 83, 4-[(1,3-Dimethyl-1H-pyrazol-5-yl)methyl]-2-[3-(methylsulfanyl)phenyl]-2H-1,2,4-benzothiadiazin-3(4H)-one 1,1-dioxide] | 295
22 | COc1ccc(N2C(=O)N(Cc3c(C)ccnc3C)c3ccccc3S2(=O)=O)cc1OC [Example 84, 2-(3,4-Dimethoxyphenyl)-4-[(2,4-dimethylpyridin-3-yl)methyl]-2H-1,2,4-benzothiadiazin-3(4H)-one 1,1-dioxide] | 490
23 | COc1ccc(N2C(=O)N(Cc3c(F)cncc3F)c3ccccc3S2(=O)=O)cc1OC [Example 85, 4-[(3,5-Difluoropyridin-4-yl)methyl]-2-(3,4-dimethoxyphenyl)-2H-1,2,4-benzothiadiazin-3(4H)-one 1,1-dioxide] | 60.3
24 | COc1ccc(N2C(=O)N(Cc3ncc(C)cc3C)c3ccccc3S2(=O)=O)cc1OC [Example 86, 4-[(3,5-Dimethylpyridin-2-yl)methyl]-2-(3,4-dimethoxyphenyl)-2H-1,2,4-benzothiadiazin-3(4H)-one 1,1-dioxide] | 74.1
25 | CSc1cccc(N2C(=O)N(Cc3ncccc3C)c3ccccc3S2(=O)=O)c1 [Example 87, 4-[(3-Methylpyridin-2-yl)methyl]-2-[3-(methylsulfanyl)phenyl]-2H-1,2,4-benzothiadiazin-3(4H)-one 1,1-dioxide] | 35.5
26 | COc1ccc(N2C(=O)N(Cc3ncccc3F)c3ccccc3S2(=O)=O)cc1OC [Example 88, 2-(3,4-Dimethoxyphenyl)-4-[(3-fluoropyridin-2-yl)methyl]-2H-1,2,4-benzothiadiazin-3(4H)-one 1,1-dioxide] | 28.2
27 | COc1ccc(N2C(=O)N(Cc3ncc(Br)cc3F)c3ccccc3S2(=O)=O)cc1OC [Example 89, 4-[(5-Bromo-3-fluoropyridin-2-yl)methyl]-2-(3,4-dimethoxyphenyl)-2H-1,2,4-benzothiadiazin-3(4H)-one 1,1-dioxide] | 38.9
28 | COc1ccc(N2C(=O)N(Cc3c(Cl)cncc3Cl)c3ccccc3S2(=O)=O)cc1OC [Example 90, 4-[(3,5-Dichloropyridin-4-yl)methyl]-2-(3,4-dimethoxyphenyl)-2H-1,2,4-benzothiadiazin-3(4H)-one 1,1-dioxide] | 3.02
29 | COc1ccc(N2C(=O)N(Cc3c(F)cccc3Cl)c3ccncc3S2(=O)=O)cc1OC [Example 91, 4-(2-Chloro-6-fluorobenzyl)-2-(3,4-dimethoxyphenyl)-2H-pyrido[4,3-e][1,2,4]thiadiazin-3(4H)-one 1,1-dioxide] | 38
30 | COc1ccc(N2C(=O)N(Cc3ccc(Cl)cc3F)c3ccncc3S2(=O)=O)cc1OC [Example 92, 4-(4-Chloro-2-fluorobenzyl)-2-(3,4-dimethoxyphenyl)-2H-pyrido[4,3-e][1,2,4]thiadiazin-3(4H)-one 1,1-dioxide] | 741
31 | COc1ccc(N2C(=O)N(Cc3c(F)cc(F)cc3F)c3ncccc3S2(=O)=O)cc1OC [Example 93, 2-(3,4-Dimethoxyphenyl)-4-(2,4,6-trifluorobenzyl)-2H-pyrido[2,3-e][1,2,4]thiadiazin-3(4H)-one 1,1-dioxide] | 1.2
